Where two headings read alike, the source gives them in different places.
Experiments:
[1] = system: HCT116^+/+; experiment: Antiproliferative assay (MTS, 72 h) on HCT116 wild type; type: cell-based, human; conditions: MTS, 72 h incubation, read-out: Activity IC50 HCT116^+/+
Protocol: (§1) All of the synthesized compounds were tested for their antiproliferative activity against human colon cancer (Table 1). We used both the wild-type and p53-negative cell lines (HCT116^+/+ and HCT116^−/−, respectively). Mutations in the TP53 gene are present in more than 50% of all cancers and often specifically correspond to a difficult therapy, resistance or a bad prognosis[60]–[63]. The active compounds were additionally tested for their cytotoxicity against normal human fibroblasts. We used 5-fluorouracil (5-FLU), doxorubicin (DOX) and CP-31398 as the standards. 5-FLU is one of the first antimetabolites that was dedicated for cancer treatment and is still used for a wide range of cancers including colon carcinoma. Doxorubicin is a DNA topoisomerase II poison with a high intercalating potency, which is able to induce apoptosis through the p53 pathway. Although DOX has been described as being ineffective in some p53 mutants, its level of activity against the p53 null lines is similar. CP-31398, on the other hand, is an experimental drug in the clinical phase and its mechanism of action is through the reactivation some of p53 mutants. Its activity against the p53 null cell lines is greatly diminished and is actually lower than its cytotoxicity.
(§2) The human colon cancer cell line HCT116 wild type was obtained from ATCC and the normal human fibroblast cell lines NHDF were obtained from PromoCell. The human colon cancer cell line HCT116 with a p53 deletion (p53^−/−) was kindly provided by Prof. M. Rusin from the Maria Sklodowska-Curie Memorial Cancer Centre and Institute of Oncology in Gliwice, Poland[89]. The cells were grown as monolayer cultures in Dulbecco’s modified Eagle’s medium with the antibiotic gentamicin (200 μL/100 mL medium) in 75 cm^2 flasks (Nunc). The DMEM for the HCT116 were supplemented with 12% heat-inactivated fetal bovine serum (Sigma-Aldrich, St. Louis, MO, USA) and for NHDF with 15% non-inactivated fetal bovine serum (Sigma Aldrich, St. Louis, MO, USA). The cells were cultured under standard conditions at 37 °C in a humidified atmosphere at 5% CO2.
(§3) The cells were seeded in 96-well plates (Nunc) at a density of 5,000 cells/well (HCT116) and 4,000 cells/well (NHDF) and incubated at 37 °C for 24 h. The assay was performed following a 72 h incubation with varying concentrations of the compounds that were being tested. Then, 20 µL of CellTiter 96® AQueous One Solution-MTS (Promega) was added to each well (with 100 µL DMEM without phenol red) and incubated for 1 h at 37 °C. The optical densities of the samples were analyzed at 490 nm using a Synergy 4 multi-plate reader (BioTek, Winooski, VT, USA). The results are expressed as the percentage of the control and were calculated as the inhibitory concentration (IC50) values (using a GraphPad Prism 7). The IC50 parameter was defined as the compound concentration that was necessary to reduce the proliferation of cells to 50% of the untreated control. Each individual compound was tested in triplicate in a single experiment with each experiment being repeated three or four times.

[2] = system: HCT116^−/−; experiment: Antiproliferative assay (MTS, 72 h) on HCT116 with p53 deletion; type: cell-based, human; conditions: for IC50: MTS, 72 h incubation
Protocol: as §1, §2, §3

[3] = system: NHDF; experiment: Cytotoxicity (MTS, 72 h) against normal human fibroblasts; type: cell-based; conditions: MTS, 72 h incubation
Protocol: as §1, §2, §3

Row | Compound | IC50 ([1]; Homo sapiens, HCT-116) [µM] | IC50 ([2]; Homo sapiens, HCT-116) [µM] | IC50 ([3]; Homo sapiens, NHDF) [µM] | melting point [°C] | selectivity towards the p53 null cells (HCT116 p53^−/− vs wild type) [2] | IC50 [1] [µM] | IC50 [2] [µM] | IC50 [3] [µM]
1 | O=C(Nc1cc(F)ccc1Br)c1ccc2ccccc2c1O [6j] | 7.78 ± 1.37 | 5.83 ± 1.06 | > 25 | 187 to 190 | – | – | – | –
2 | COc1ccc(C)c(NC(=O)c2ccc3ccccc3c2O)c1 [3h] | 11.7 ± 3.81 | > 25 | > 25 | 128 to 130 | – | – | – | –
3 | O=C(Nc1ccc(Cl)cc1F)c1ccc2ccccc2c1O [4q] | 9.89 ± 3.26 | 9.69 ± 3.13 | > 25 | 163 to 165 | – | – | – | –
4 | O=C(Nc1cc(C(F)(F)F)ccc1F)c1ccc2ccccc2c1O [4u] | 10.1 ± 2.61 | 7.45 ± 1.74 | > 25 | 190 to 192 | – | – | – | –
5 | COc1ccc(Cl)c(NC(=O)c2ccc3ccccc3c2O)c1 [5p] | 24.1 ± 2.58 | 19.3 ± 2.09 | > 25 | 159 to 161 | – | – | – | –
6 | COc1cc([N+](=O)[O-])ccc1NC(=O)c1ccc2ccccc2c1O [2g] | 2.62 ± 0.85 | 3.73 ± 1.09 | 7.53 ± 2.97 | 250 to 253 | – | – | – | –
7 | COc1ccc(NC(=O)c2ccc3ccccc3c2O)cc1C(F)(F)F [7k] | > 25 | > 25 | – | 183 to 186 | – | – | – | –
8 | O=C(Nc1cc(F)ccc1F)c1ccc2ccccc2c1O [4e] | 4.76 ± 0.76 | 15.1 ± 6.75 | > 25 | 153 to 155 | – | – | – | –
9 | O=C(Nc1c(F)c(F)cc(F)c1F)c1ccc2ccccc2c1O [4m] | 12 ± 0.92 | > 25 | > 25 | 160 to 163 | – | – | – | –
10 | COc1ccc(OC)c(NC(=O)c2ccc3ccccc3c2O)c1 [2d, N-(2,5-dimethoxyphenyl)−1-hydroxynaphthalene-2-carboxamide] | > 25 | > 25 | – | 116 to 119 | – | – | – | –
11 | O=C(Nc1cccc(C(F)(F)F)c1F)c1ccc2ccccc2c1O [4p] | 6.5 ± 1.16 | 5.45 ± 1.72 | 24.4 ± 2.51 | 174 to 175 | – | – | – | –
12 | O=C(Nc1cc(F)c(C(F)(F)F)cc1F)c1ccc2ccccc2c1O [4z] | 4.22 ± 0.87 | 2.82 ± 0.77 | 18.4 ± 0.91 | 229 to 231 | – | – | – | –
13 | Cc1ccc(C(F)(F)F)cc1NC(=O)c1ccc2ccccc2c1O [3i] | 8.41 ± 1.07 | 5.08 ± 1.23 | > 25 | 140 to 143 | – | – | – | –
14 | O=C(Nc1ccc(Br)cc1F)c1ccc2ccccc2c1O [4r] | 15 ± 4.82 | 3.43 ± 0.69 | > 25 | 172 to 174 | roughly 4.5 fold | – | – | –
15 | O=C(Nc1c(Br)cc(C(F)(F)F)cc1Br)c1ccc2ccccc2c1O [6l] | 9.37 ± 0.47 | 6.81 ± 2.66 | 20.4 ± 1.16 | 183 to 186 | – | – | – | –
16 | COc1ccc(C)cc1NC(=O)c1ccc2ccccc2c1O [2j] | > 25 | > 25 | – | 106 to 108 | – | – | – | –
17 | O=C(Nc1cc(F)cc(F)c1)c1ccc2ccccc2c1O [4h] | 1.79 ± 0.44 | 2.24 ± 0.3 | 9.87 ± 0.66 | 199 to 200 | – | – | – | –
18 | O=C(Nc1c(F)cc(F)cc1F)c1ccc2ccccc2c1O [4k] | > 25 | > 25 | – | 180 to 184 | – | – | – | –
19 | Cc1cc(C)c(NC(=O)c2ccc3ccccc3c2O)c(C)c1 [3g] | > 25 | > 25 | – | 160 to 163 | – | – | – | –

Row | Compound | IC50 ([1]; Homo sapiens, HCT-116) [µM] | IC50 ([2]; Homo sapiens, HCT-116) [µM] | IC50 ([3]; Homo sapiens, NHDF) [µM] | melting point [°C] | selectivity towards the p53 null cells (HCT116 p53^−/− vs wild type) [2] | IC50 [1] [µM] | IC50 [2] [µM] | IC50 [3] [µM]
20 | Cc1ccc(NC(=O)c2ccc3ccccc3c2O)cc1C(F)(F)F [7l] | > 25 | > 25 | – | 168 to 171 | – | – | – | –
21 | O=C(Nc1cccc(C(F)(F)F)c1)c1ccc2ccccc2c1O [7b] | – | – | – | – | – | 6.25 ± 0.47 | 1.39 ± 0.29 | > 25
22 | O=C(Nc1ccc(Cl)cc1Cl)c1ccc2ccccc2c1O [5e] | – | – | – | – | – | 1.95 ± 0.5 | 6.06 ± 1.13 | > 25
23 | O=C(Nc1cccc(Br)c1)c1ccc2ccccc2c1O [6b] | – | – | – | – | – | 9.19 ± 0.98 | 8.73 ± 0.89 | 15.2 ± 2.48
24 | O=C(Nc1ccc(F)cc1)c1ccc2ccccc2c1O [4c] | – | – | – | – | – | 2.49 ± 0.61 | 5.01 ± 1.12 | > 25
25 | O=C(Nc1ccc(Cl)cc1)c1ccc2ccccc2c1O [5c] | – | – | – | – | – | 9.62 ± 0.75 | 9.41 ± 0.78 | > 25
26 | O=C(Nc1cc(Br)ccc1Br)c1ccc2ccccc2c1O [6e] | – | – | – | – | – | 5.24 ± 0.28 | 5.85 ± 0.61 | > 25
27 | O=C(Nc1c(Cl)cc(C(F)(F)F)cc1Cl)c1ccc2ccccc2c1O [5v] | > 25 | > 25 | – | 191 to 194 | – | – | – | –
28 | O=C(Nc1ccc(F)cc1C(F)(F)F)c1ccc2ccccc2c1O [7g] | > 25 | > 25 | – | 135 to 137 | – | – | – | –
29 | O=C(Nc1c(F)cccc1F)c1ccc2ccccc2c1O [4f] | > 25 | > 25 | – | 197 to 200 | – | – | – | –
30 | O=C(Nc1ccc(Br)c(Cl)c1)c1ccc2ccccc2c1O [5t] | – | – | – | – | not selective | 12.3 ± 0.79 | 12.6 ± 0.69 | > 25
31 | O=C(Nc1ccc(F)c(F)c1)c1ccc2ccccc2c1O [4g] | 3.04 ± 0.06 | 5.88 ± 0.5 | – | 153 to 156 | – | – | – | –
32 | Cc1cc(C)cc(NC(=O)c2ccc3ccccc3c2O)c1 [3f] | 19.3 ± 1.68 | > 25 | > 25 | – | – | – | – | –
33 | COc1cccc(C)c1NC(=O)c1ccc2ccccc2c1O [2k] | > 25 | > 25 | – | 177 to 179 | – | – | – | –
34 | O=C(Nc1cc(Cl)c(Cl)c(Cl)c1)c1ccc2ccccc2c1O [5l] | – | – | – | – | – | 1.31 ± 0.15 | 2.86 ± 0.33 | 7.01 ± 0.42
35 | COc1cccc(NC(=O)c2ccc3ccccc3c2O)c1 [2b] | – | – | – | – | – | 8.51 ± 1.69 | 24.1 ± 3.54 | > 25
36 | O=C(Nc1ccccc1Br)c1ccc2ccccc2c1O [6a] | – | – | – | – | – | 22.5 ± 3.62 | > 25 | > 25
37 | O=C(Nc1cccc(F)c1)c1ccc2ccccc2c1O [4b] | – | – | – | – | – | 1.88 ± 0.33 | 9.02 ± 1.91 | > 25
38 | O=C(Nc1c(Br)cc(F)c(Cl)c1Br)c1ccc2ccccc2c1O [6m] | > 25 | > 25 | – | 244 to 247 | – | – | – | –

From PMC6476888, “Design and synthesis of anticancer 1-hydroxynaphthalene-2-carboxanilides with a p53 independent mechanism of action” (Scientific Reports, 2019)
